Patent US7351742B2, “Sulfonamide derivatives for the treatment of diseases” (Pfizer Inc., priority 2004, dated 2008)

Target: T1, human β2 adrenergic receptor (Homo sapiens, UniProt P07550)
T1 construct: expressed in transfected cells; host or cells: CHO (Chinese Hamster Ovary) cells, CHOhβ2
Test: β2 cAMP EC50 in CHO cells recombinantly expressing the human β2 adrenergic receptor (cAMP-Flashplate)
Assay type: cell-based
Details: CHOhβ2 cells, 1 hour incubation
Protocol: According to another alternative, the agonist potency for the β2 receptor of the compounds of the formula (1) may also be determined by the measure of the concentration of compound according to the present invention required to produce half maximal effect (EC50) for the β2 receptor.
10 mM/100% DMSO (dimethylsulfoxide) stock of compound is diluted to required top dose in 4% DMSO. This top dose is used to construct a 10-point semi-log dilution curve, all in 4% DMSO. Isoprenaline (Sigma, 1-5627) was used as a standard in every experiment and for control wells on each plate. Data was expressed as % Isoprenaline response.
CHO (Chinese Hamster Ovary) cells recombinantly expressing the human β2 adrenergic receptor (from Kobilka et al., PNAS 84: 46-50, 1987 and Bouvier et al., Mol Pharmacol 33: 133-139 1988 CHOhβ2) were grown in Dulbeccos MEM/NUT MIX F12 (Gibco, 21331-020) supplemented with 10% foetal bovine serum (Sigma, F4135, Lot 90K8404 Exp 09/04), 2 mM glutamine (Sigma, G7513), 500 μg/ml geneticin (Sigma, G7034) and 10 μg/ml puromycin (Sigma, P8833). Cells were seeded to give about 90% confluency for testing.
25 μl/well each dose of compound was transferred into a cAMP-Flashplate® (NEN, SMP004B), with […] as basal controls and 100 nM Isoprenaline as max controls. This was diluted 1:2 by the addition of 25 μl/well PBS. Cells were trypsinised (0.25% Sigma, T4049), washed with PBS (Gibco, 14040-174) and resuspended in stimulation buffer (NEN, SMP004B) to give 1×10^6 cells/ml CHOhB2. Compounds were incubated with 50 μl/well cells for 1 hour. Cells were then lysed by the addition of 100 μl/well detection buffer (NEN, SMP004B) containing 0.18 μCi/ml ^125I-cAMP (NEN, NEX-130) and plates were incubated at room temperature for a further 2 hours. The amount of ^125I-cAMP bound to the Flashplate® was quantified using a Topcount NXT (Packard), normal counting efficiency for 1 minute. Dose-response data was expressed as % Isoprenaline activity and fitted using a four parameter sigmoid fit.

T1 sequence (P07550 whole entry): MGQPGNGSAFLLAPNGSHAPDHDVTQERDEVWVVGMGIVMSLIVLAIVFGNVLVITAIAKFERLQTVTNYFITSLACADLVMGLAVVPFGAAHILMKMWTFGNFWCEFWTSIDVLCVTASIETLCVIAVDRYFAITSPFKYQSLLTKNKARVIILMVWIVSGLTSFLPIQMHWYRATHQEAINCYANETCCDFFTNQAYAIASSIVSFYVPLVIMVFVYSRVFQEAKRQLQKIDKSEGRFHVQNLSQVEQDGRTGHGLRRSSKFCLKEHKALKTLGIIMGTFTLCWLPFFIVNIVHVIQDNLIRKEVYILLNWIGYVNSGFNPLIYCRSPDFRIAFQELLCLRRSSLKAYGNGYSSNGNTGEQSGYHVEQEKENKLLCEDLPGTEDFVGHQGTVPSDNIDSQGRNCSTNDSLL

Row | SMILES | EC50
1 | CC(C)(Cc1cccc(CC(=O)NCc2ccccc2)c1)NC[C@H](O)c1ccc(O)c(NS(C)(=O)=O)c1 [Example 1, N-Benzyl-2-(3-{2-[((2R)-2-hydroxy-2-{4-hydroxy-3-[(methylsulfonyl)amino]phenyl}ethyl)amino]-2-methylpropyl}phenyl)acetamide] | 0.02 nM
2 | COc1ccc(CNC(=O)Cc2cccc(CC(C)(C)NC[C@H](O)c3ccc(O)c(NS(C)(=O)=O)c3)c2)cc1 [Example 2, 2-(3-{2-[((2R)-2-hydroxy-2-{4-hydroxy-3-[(methylsulfonyl)amino]phenyl}ethyl)amino]-2-methylpropyl}phenyl)-N-(4-methoxybenzyl)acetamide] | 0.03 nM
3 | Cc1ccc(CNC(=O)Cc2cccc(CC(C)(C)NC[C@H](O)c3ccc(O)c(NS(C)(=O)=O)c3)c2)cc1 [Example 6, 2-(3-{2-[((2R)-2-hydroxy-2-{4-hydroxy-3-[(methylsulfonyl)amino]phenyl}ethyl)amino]-2-methylpropyl}phenyl)-N-(4-methylbenzyl)acetamide] | 0.07 nM
4 | CC(C)(Cc1cccc(CC(=O)NCc2ccc(F)cc2)c1)NC[C@H](O)c1ccc(O)c(NS(C)(=O)=O)c1 [Example 15, N-(4-Fluorobenzyl)-2-(3-{2-[((2R)-2-hydroxy-2-{4-hydroxy-3-[(methylsulfonyl)amino]phenyl}ethyl)amino]-2-methylpropyl}phenyl)acetamide] | 0.03 nM
5 | CC(C)(Cc1cccc(CC(=O)NCCc2ccccc2)c1)NC[C@H](O)c1ccc(O)c(NS(C)(=O)=O)c1 [Example 25, 2-(3-{2-[((2R)-2-Hydroxy-2-{4-hydroxy-3-[(methylsulfonyl)amino]phenyl}ethyl)amino]-2-methylpropyl}phenyl)-N-(2-phenylethyl)acetamide] | 0.08 nM
6 | CSc1ccccc1CNC(=O)Cc1cccc(CC(C)(C)NC[C@H](O)c2ccc(O)c(NS(C)(=O)=O)c2)c1 [Example 31, 2-(3-{2-[((2R)-2-Hydroxy-2-{4-hydroxy-3-[(methylsulfonyl)amino]phenyl}ethyl)amino]-2-methylpropyl}phenyl)-N-[2-(methylthio)benzyl]acetamide] | 0.04 nM
7 | C[C@H](Cc1cccc(CC(=O)NCc2ccc(Cl)c(Cl)c2)c1)NC[C@H](O)c1ccc(O)c(NS(C)(=O)=O)c1 [Example 39, N-(3,4-Dichlorobenzyl)-2-(3-{(2R)-2-[((2R)-2-hydroxy-2-{4-hydroxy-3-[(methylsulfonyl)amino]phenyl}ethyl)amino]propyl}phenyl)acetamide] | 0.05 nM
8 | C[C@H](Cc1cccc(CC(=O)NCc2ccc(C(F)(F)F)cc2)c1)NC[C@H](O)c1ccc(O)c(NS(C)(=O)=O)c1 [Example 45, 2-(3-{(2R)-2-[((2R)-2-Hydroxy-2-{4-hydroxy-3-[(methylsulfonyl)amino]phenyl}ethyl)amino]propyl}phenyl)-N-[4-(trifluoromethyl)benzyl]acetamide] | 0.06 nM
9 | C[C@H](Cc1ccc(CC(=O)NCc2ccccc2)cc1)NC[C@H](O)c1ccc(O)c(NS(C)(=O)=O)c1 [Example 76, N-Benzyl-2-(4-{(2R)-2-[((2R)-2-hydroxy-2-{4-hydroxy-3-[(methylsulfonyl)amino]phenyl}ethyl)amino]propyl}phenyl)acetamide] | 0.02 nM

Second part, the compound after the results:

Row | EC50 | SMILES
10 | 0.05 nM | CC(C)(Cc1cccc(CC(=O)NCc2ccc(Cl)cc2)c1)NC[C@H](O)c1ccc(O)c(NS(C)(=O)=O)c1 [Example 12, N-(4-Chlorobenzyl)-2-(3-{2-[((2R)-2-hydroxy-2-{4-hydroxy-3-[(methylsulfonyl)amino]phenyl}ethyl)amino]-2-methylpropyl}phenyl)acetamide]
11 | 0.08 nM | CC(C)(Cc1cccc(CC(=O)NCc2ccc(Cl)c(Cl)c2)c1)NC[C@H](O)c1ccc(O)c(NS(C)(=O)=O)c1 [Example 17, N-(3,4-Dichlorobenzyl)-2-(3-{2-[((2R)-2-hydroxy-2-{4-hydroxy-3-[(methylsulfonyl)amino]phenyl}ethyl)amino]-2-methylpropyl}phenyl)acetamide]
12 | 0.09 nM | CC(C)(Cc1cccc(CC(=O)NCCCc2ccccc2)c1)NC[C@H](O)c1ccc(O)c(NS(C)(=O)=O)c1 [Example 26, 2-(3-{2-[((2R)-2-Hydroxy-2-{4-hydroxy-3-[(methylsulfonyl)amino]phenyl}ethyl)amino]-2-methylpropyl}phenyl)-N-(3-phenylpropyl)acetamide]
13 | 0.06 nM | Cc1ccc(CNC(=O)Cc2cccc(C[C@@H](C)NC[C@H](O)c3ccc(O)c(NS(C)(=O)=O)c3)c2)cc1C [Example 38, N-(3,4-Dimethylbenzyl)-2-(3-{(2R)-2-[((2R)-2-hydroxy-2-{4-hydroxy-3-[(methylsulfonyl)amino]phenyl}ethyl)amino]propyl}phenyl)acetamide]
14 | 0.02 nM | C[C@H](Cc1cccc(CC(=O)NCc2ccccn2)c1)NC[C@H](O)c1ccc(O)c(NS(C)(=O)=O)c1 [Example 60, 2-(3-{(2R)-2-[((2R)-2-Hydroxy-2-{4-hydroxy-3-[(methylsulfonyl)amino]phenyl}ethyl)amino]propyl}phenyl)-N-(pyridin-2-ylmethyl)acetamide]
15 | 0.08 nM | CC(C)(Cc1ccc(CC(=O)NCc2cc(C(F)(F)F)ccc2Cl)cc1)NC[C@H](O)c1ccc(O)c(NS(C)(=O)=O)c1 [Example 67, N-[2-Chloro-5-(trifluoromethyl)benzyl]-2-(4-{2-[((2R)-2-hydroxy-2-{4-hydroxy-3-[(methylsulfonyl)amino]phenyl}ethyl)amino]-2-methylpropyl}phenyl)acetamide]
